Data on 35 compounds can be found in US9000191B2, “Serotonin reuptake inhibitors” (Theravance Biopharma R&D IP, LLC, priority 2010, dated 2015).

For the assay, the target named is T1, hSERT (Homo sapiens, UniProt P31645).
T1 construct: expressed in transfected cells; host or cells: HEK293 (stably transfected, G418 selection)
T1 sequence (P31645 whole entry): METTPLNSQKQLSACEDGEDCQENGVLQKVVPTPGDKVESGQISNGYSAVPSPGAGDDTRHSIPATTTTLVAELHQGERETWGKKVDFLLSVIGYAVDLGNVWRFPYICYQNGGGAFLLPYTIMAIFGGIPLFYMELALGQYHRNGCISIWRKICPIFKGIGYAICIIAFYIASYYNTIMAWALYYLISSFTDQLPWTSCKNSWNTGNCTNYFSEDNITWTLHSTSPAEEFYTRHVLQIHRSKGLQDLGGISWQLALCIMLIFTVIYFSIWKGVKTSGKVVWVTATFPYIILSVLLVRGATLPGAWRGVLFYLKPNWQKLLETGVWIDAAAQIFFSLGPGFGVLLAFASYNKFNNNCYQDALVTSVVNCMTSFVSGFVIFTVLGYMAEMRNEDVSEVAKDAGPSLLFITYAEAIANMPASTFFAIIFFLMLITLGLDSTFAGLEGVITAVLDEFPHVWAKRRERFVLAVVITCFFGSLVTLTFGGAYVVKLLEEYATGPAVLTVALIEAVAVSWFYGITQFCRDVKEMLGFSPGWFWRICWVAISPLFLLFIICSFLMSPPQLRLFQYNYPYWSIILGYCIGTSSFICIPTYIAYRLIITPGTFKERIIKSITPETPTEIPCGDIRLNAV
Description: hSERT neurotransmitter uptake assay. In kind it is cell-based. The following applies: serotonin reuptake inhibition, HEK293-hSERT cells; read-out: SERT pIC50 (converted). The procedure: Neurotransmitter uptake assays were used to measure inhibition of ^3H-serotonin (^3H-5-HT) uptake into cells expressing hSERT in order to determine the pIC50 values of test compounds at the transporter, similar to the procedures described in Tsuruda et al. (2010) Journal of Pharmacological and Toxicological Methods 61(2):192-204.
HEK293 cells stably-transfected with human recombinant SERT (HEK293-hSERT) were grown in DMEM medium supplemented with 10% dialyzed fetal bovine serum, 100 μg/ml penicillin, 100 μg/ml streptomycin, 2 mM L-glutamine, and 250 μg/ml of the aminoglycoside antibiotic G418. Cells were incubated in a 5% CO2, humidified incubator at 37° C.
The neurotransmitter uptake assay was performed in a 96-well assay plate in a total volume of 100 μL assay buffer containing HEK293-hSERT cells (7500-10,000 cells/well; plated ˜2 hours prior to assay initiation. Neurotransmitter Transporter Uptake Assay dye (0.5 μM), and eleven different concentrations of compound ranging from 10 μM to […] was used. Non-specific uptake was determined in the presence of indatraline (2.5 μM). The final assay buffer was 12.5 mM Tris-HCl, 5 mM HEPES, 3 mM NaHCO3, 0.3 mM KH2PO4, 0.25 mM Na2HPO4, 130 mM NaCl, 5 mM KCl, 1 mM CaCl2, 0.4 mM MgCl2, 0.3 mM MgSO4, 4 mM D-glucose, 0.025% BSA, 0.1 mM ascorbic acid, pH 7.4.
In pre-incubation studies, test compound was added to cells for 30 minutes at 37° C. prior to the addition of fluorescent substrate. For determination of inhibitory potency, a 10-30 minute endpoint substrate accumulation was determined by fluorescence spectroscopy using a Safire (Tecan Group Ltd., Minnendorf, Switzerland) and analysis was performed as described in Tsuruda et al., supra. For real-time measurements, compounds were either preincubated (as above) or mixed with substrate prior to addition, and kinetic measurements, relative fluorescence units (RFU integrated over 0.5 ms), were made using a cycle time of 1 min.
For `CS(=O)(=O)C[C@H](Oc1ccc(C(F)(F)F)cc1)[C@H]1CCNC1` [Example 2-1, (S)-3-[(R)-2-Methanesulfonyl-1-(4-trifluoromethylphenoxy)ethyl]pyrrolidine], the IC50 is no more than 10 nM.

`CS(=O)(=O)C[C@@H](Oc1ccc(C(F)(F)F)nc1)[C@@H]1CCNC1` [Example 5]: the IC50 is no more than 100 nM.

With `CS(=O)(=O)C[C@@H](Oc1ccc(C(F)(F)F)cc1)[C@@H]1CCNC1` [Example 2-3, (R)-3-[(S)-2-Methanesulfonyl-1-(4-trifluoromethylphenoxy)ethyl]pyrrolidine], the IC50 is no more than 10 nM.

As to `CS(=O)(=O)C[C@H](Oc1ccc(OC(F)(F)F)cc1)[C@H]1CCNC1` [Example 2-10, (S)-3-[(R)-2-Methanesulfonyl-1-(4-trifluoromethoxyphenoxy)ethyl]pyrrolidine], the IC50 was no more than 100 nM.

Take `CS(=O)(=O)C[C@@H](Oc1ccc(Cl)nc1)[C@H]1CCNC1` [Example 6-3, 2-Chloro-5-((S)-2-methanesulfonyl-1-(S)-pyrrolidin-3-ylethoxy)pyridine]: the IC50 is no more than 100 nM.

As to `CS(=O)(=O)C[C@@H](Oc1ccc(C(F)(F)F)nc1)[C@H]1CCNC1` [Example 6-2, 5-((S)-2-Methanesulfonyl-1-(S)-pyrrolidin-3-ylethoxy)-2-trifluoromethylpyridine], the IC50 was no more than 100 nM.

Regarding `CC(C)S(=O)(=O)CCC(Oc1ccc(C(F)(F)F)cc1)[C@H]1CCNC1` (single isomer, unassigned) [Example 8-5], the IC50 is no more than 10 nM.

In the case of `CS(=O)(=O)C[C@@H](Oc1ccc(Cl)c(C#N)c1)[C@H]1CCNC1` [Example 2-22, 2-Chloro-5-((S)-2-methanesulfonyl-1-(S)-pyrrolidin-3-ylethoxy)benzonitrile], the IC50 is no more than 10 nM.

Consider `CS(=O)(=O)CCC(Oc1ccc(C(F)(F)F)cc1)[C@H]1CCNC1` (single isomer, unassigned) [Example 8-3], for which the IC50 is no more than 100 nM.

`CS(=O)(=O)C[C@H](Oc1ccc(C(F)(F)F)cc1)[C@@H]1CCNC1` [Example 2-2, (R)-3-[(R)-2-Methanesulfonyl-1-(4-trifluoromethylphenoxy)ethyl]pyrrolidine]: the IC50 was no more than 10 nM.

`CS(=O)(=O)C[C@@H](Oc1ccc(OC(F)(F)F)cc1)[C@H]1CCNC1` [Example 2-9, (S)-3-[(S)-2-Methanesulfonyl-1-(4-trifluoromethoxyphenoxy)ethyl]pyrrolidine]: the IC50 was no more than 100 nM.

As to `CS(=O)(=O)C[C@H](Oc1ccc(Cl)cc1)[C@H]1CCNC1` [Example 2-4, (S)-3-[(R)-1-(4-Chlorophenoxy)-2-methanesulfonylethyl]pyrrolidine], the IC50 was no more than 100 nM.

Consider `Cc1cc(Cl)ccc1O[C@@H](CS(C)(=O)=O)[C@H]1CCNC1` [Example 2-28, (S)-3-[(R)-1-(4-Chloro-2-methylphenoxy)-2-methanesulfonylethyl]pyrrolidine], for which the IC50 is no more than 10 nM.

Take `CS(=O)(=O)CCC(Oc1ccc(C(F)(F)F)cc1)[C@@H]1CCNC1` (single isomer, unassigned) [Example 8-1]: the IC50 was no more than 100 nM.

In the case of `CS(=O)(=O)C[C@@H](Oc1ccc([N+](=O)[O-])cc1)[C@H]1CCNC1` [Example 2-5, (S)-3-[(S)-2-Methanesulfonyl-1-(4-nitrophenoxy)ethyl]pyrrolidine], the IC50 is no more than 100 nM.

Turning to `O=S(=O)(CCO)C[C@@H](Oc1ccc(C(F)(F)F)cc1)[C@H]1CCNC1` [Example 2-15, 2-[(S)-2-(S)-Pyrrolidin-3-yl-2-(4-trifluoromethylphenoxy)ethanesulfonyl]ethanol], the IC50 was no more than 10 nM.

For the compound `COc1cc([N+](=O)[O-])ccc1O[C@H](CS(C)(=O)=O)[C@@H]1CCNC1` [Example 2-26, (R)-3-[(S)-2-Methanesulfonyl-1-(2-methoxy-4-nitrophenoxy)ethyl]pyrrolidine], the IC50 was no more than 100 nM.

Turning to `O=S(=O)(C[C@@H](Oc1ccc(C(F)(F)F)cc1)[C@H]1CCNC1)c1ccccc1` [Example 2-17, (S)-3-[(S)-2-Benzenesulfonyl-1-(4-trifluoromethylphenoxy)ethyl]pyrrolidine], the IC50 is no more than 10 nM.

As to `O=S(=O)(C[C@@H](Oc1ccc(C(F)(F)F)cc1)[C@H]1CCNC1)c1ccncc1` [Example 2-19, 4-[(S)-2-(S)-Pyrrolidin-3-yl-2-(4-trifluoromethylphenoxy)ethanesulfonyl]pyridine], the IC50 is no more than 100 nM.

As to `COc1cc([N+](=O)[O-])ccc1O[C@@H](CS(C)(=O)=O)[C@H]1CCNC1` [Example 2-25, (S)-3-[(R)-2-Methanesulfonyl-1-(2-methoxy-4-nitrophenoxy)ethyl]pyrrolidine], the IC50 is no more than 100 nM.

Consider `CC(C)S(=O)(=O)C[C@@H](Oc1ccc(C(F)(F)F)cc1)[C@H]1CCNC1` [Example 2-13, (S)-3-[(S)-2-(Propane-2-sulfonyl)-1-(4-trifluoromethylphenoxy)ethyl]pyrrolidine], for which the IC50 was no more than 10 nM.

On to `CS(=O)(=O)C[C@@H](Oc1ccc(OC(F)(F)F)cc1)[C@@H]1CCNC1` [Example 2-11, (R)-3-[(S)-2-Methanesulfonyl-1-(4-trifluoromethoxyphenoxy)ethyl]pyrrolidine], for which the IC50 was no more than 10 nM.

Take `CS(=O)(=O)C[C@H](Oc1ccc(Cl)c(C#N)c1)[C@H]1CCNC1` (stereo in doubt) [Example 2-24, 2-Chloro-5-((S)-2-methanesulfonyl-1-(R)-pyrrolidin-3-ylethoxy)benzonitrile]: the IC50 is no more than 10 nM.

`CC(=O)NCCS(=O)(=O)C[C@@H](Oc1ccc(C(F)(F)F)cc1)[C@H]1CCNC1` [Example 2-14, N-{2-[(S)-2-(S)-Pyrrolidin-3-yl-2-(4-trifluoromethylphenoxy)ethanesulfonyl]-ethyl}-acetamide]: the IC50 was no more than 10 nM.

Consider `CS(=O)(=O)C[C@@H](Oc1ccc(Cl)c(C#N)c1)[C@@H]1CCNC1` (stereo in doubt) [Example 2-23, 2-Chloro-5-((R)-2-methanesulfonyl-1-(S)-pyrrolidin-3-ylethoxy)benzonitrile], for which the IC50 was no more than 100 nM.

Regarding `CS(=O)(=O)C[C@H](Oc1ccc([N+](=O)[O-])cc1)[C@H]1CCNC1` [Example 2-6, (S)-3-[(R)-2-Methanesulfonyl-1-(4-nitro-phenoxy)ethyl]pyrrolidine], the IC50 was no more than 100 nM.

For `CS(=O)(=O)C[C@@H](Oc1ccc(C(F)(F)F)c(C#N)c1)[C@H]1CCNC1` [Example 2-20, 5-((S)-2-Methanesulfonyl-1-(S)-pyrrolidin-3-ylethoxy)-2-trifluoromethyl-benzonitrile], the IC50 is no more than 100 nM.

As to `CC(=O)Nc1ccc(S(=O)(=O)C[C@@H](Oc2ccc(C(F)(F)F)cc2)[C@H]2CCNC2)cc1` [Example 2-18, N-{4-[(S)-2-(S)-Pyrrolidin-3-yl-2-(4-trifluoromethylphenoxy)ethanesulfonyl]-phenyl}-acetamide], the IC50 is no more than 10 nM.

On to `CS(=O)(=O)C[C@@H](Oc1ccc(C(F)(F)F)cn1)[C@H]1CCNC1` [Example 4-3, 2-((S)-2-Methanesulfonyl-1-(S)-pyrrolidin-3-yl-ethoxy)-5-trifluoromethyl-pyridine], for which the IC50 was no more than 10 nM.

As for `COc1cc([N+](=O)[O-])ccc1O[C@@H](CS(C)(=O)=O)[C@@H]1CCNC1` [Example 2-27, (R)-3-[(R)-2-Methanesulfonyl-1-(2-methoxy-4-nitrophenoxy)ethyl]pyrrolidine], the IC50 was no more than 100 nM.

For the compound `CS(=O)(=O)C[C@H](Oc1ccc(Cl)cn1)[C@H]1CCNC1` (stereo in doubt) [Example 4-2, 5-Chloro-2-((S)-2-methanesulfonyl-1-(R)-pyrrolidin-3-ylethoxy)pyridine], the IC50 was no more than 100 nM.

For the compound `CS(=O)(=O)C[C@H](Oc1ccc(Cl)nc1)[C@H]1CCNC1` (stereo in doubt) [Example 6-4, 2-Chloro-5-((S)-2-methanesulfonyl-1-(R)-pyrrolidin-3-ylethoxy)pyridine], the IC50 is no more than 100 nM.

Take `CCS(=O)(=O)C[C@@H](Oc1ccc(C(F)(F)F)cc1)[C@H]1CCNC1` [Example 2-12, (S)-3-[(S)-2-Ethanesulfonyl-1-(4-trifluoromethyl-phenoxy)ethyl]pyrrolidine]: the IC50 is no more than 10 nM.

For the compound `CS(=O)(=O)C[C@@H](Oc1ccc(Cl)cn1)[C@H]1CCNC1` [Example 4-1, 5-Chloro-2-((S)-2-methanesulfonyl-1-(S)-pyrrolidin-3-ylethoxy)pyridine], the IC50 was no more than 100 nM.

Regarding `CS(=O)(=O)C[C@@H](Oc1ccc(C(F)(F)F)nc1)[C@@H]1CCNC1` (stereo in doubt) [Example 6-1, 5-((R)-2-Methanesulfonyl-1-(S)-pyrrolidin-3-ylethoxy)-2-trifluoromethylpyridine], the IC50 is no more than 100 nM.
